Test results reported in the Kinase Knowledgebase extract (Sharma et al. 2016).
“And” between values parts separate entries of the source, which are not always exact repeats. Equal entries are not always repeated.

Legend:
MAPK14 (human) [1] = biological target: MAPK14 (human) (UniProt Q16539); assay: Assessment of Phosphorylation of MAPK14 in HeLa Cell Line
MAPK14 (human) [2] = biological target: MAPK14 (human) (UniProt Q16539); assay: Inhibition of MAPK14 Kinase Activity

Chain of MAPK14 (human) (Q16539 whole entry, looked up): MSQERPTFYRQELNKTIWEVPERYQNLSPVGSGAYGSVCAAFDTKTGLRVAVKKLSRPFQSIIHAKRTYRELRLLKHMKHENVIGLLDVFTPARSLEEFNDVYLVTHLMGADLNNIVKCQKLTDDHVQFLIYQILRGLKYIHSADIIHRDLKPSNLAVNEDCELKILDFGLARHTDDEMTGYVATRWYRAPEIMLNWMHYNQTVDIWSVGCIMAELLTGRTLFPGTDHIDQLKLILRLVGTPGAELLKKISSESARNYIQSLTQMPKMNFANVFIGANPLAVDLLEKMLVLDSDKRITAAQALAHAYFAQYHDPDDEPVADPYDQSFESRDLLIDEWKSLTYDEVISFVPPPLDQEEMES

SMILES | IC50 (MAPK14 (human) [1]) | IC50 (MAPK14 (human) [2]) [nM]
COCC[C@H](C)Nc1nc2ccc(-c3nc(C4(C)COC4)[nH]c3-c3ccc(F)cc3F)nc2o1 | < 50 nM | < 50
COCC[C@H](C)Nc1nc2ccc(-c3nc(C(C)(C)CO)[nH]c3-c3ccc(F)cc3F)nc2o1 | 1.6 nM and < 50 nM | < 50
CCOC[C@H](C)Nc1nc2ccc(-c3nc(C4(CO)CC4)[nH]c3-c3ccc(F)cc3F)nc2o1 | < 50 nM | < 50
COCC[C@@H](C)Nc1nc2ccc(-c3nc(C(C)(C)CO)[nH]c3-c3ccc(F)cc3F)nc2o1 | < 50 nM | < 50
COCC[C@H](C)Nc1nc2ccc(-c3nc(C4CC4)[nH]c3-c3ccc(F)cc3F)nc2o1 | < 50 nM | < 50
